Patent US11318134B2, “Benzamide compounds” (priority 2018, dated 2022)
Where two headings read alike, the source gives them in different places.

Experiments:
Bcl-2 [1] = molecular target: T1, Bcl-2 (Homo sapiens (Human), UniProt P10415); assay: Bcl-2 protein family binding assay (Bcl2scan platform), Bcl-2; settings: BIM peptide ligand, 11-point dilution, read-out: Bc1-2 Kd (nm)
Procedure: (§1) E. coli were grown to log-phase and infected with T7 phage from a frozen stock (multiplicity of infection=0.4) and incubated with shaking at 32° C. until lysis (90-150 minutes). The lysates were centrifuged (5,000×g) and filtered (0.2 μm) to remove cell debris. […] The liganded beads were blocked with excess biotin and washed with blocking buffer (SeaBlock (Pierce), 1% BSA, 0.05% Tween 20, 1 mM DTT) to remove unbound ligand and to reduce non-specific phage binding. […] Test compounds were prepared as 100× stocks in 100% DMSO. Kds were determined using an 11-point 3-fold compound dilution series with one DMSO control point. […] The compounds were then diluted directly into the assays such that the final concentration of DMSO was 0.9%. All reactions performed in polypropylene 384-well plates. Each was a final volume of 0.02 ml. […] The BCL2 concentration in the eluates was measured by qPCR. Binding constants (Kds) were calculated with a standard dose-response curve using the Hill equation:
(§2) [formula] The Hill Slope was set to −1. Curves were fitted using a non-linear least square fit with the Levenberg-Marquardt algorithm.

Bcl-XL [2] = molecular target: T2, Bcl-XL (Homo sapiens (Human), UniProt Q07817); assay: Bcl-2 protein family binding assay (Bcl2scan platform), Bcl-XL; settings: BIM peptide ligand, 11-point dilution, read-out: Bc1-XL Kd (nm)
Procedure: as §1, §2

Bcl-2 [3] = molecular target: T1, Bcl-2; assay: Bcl-2 HTRF assay (FAM-Bak peptide); format: binding; settings: read-out: Bc1-2 IC50
Bcl-XL [4] = molecular target: T2, Bcl-XL; assay: Bcl-XL HTRF assay (FAM-Bad peptide); format: binding; settings: read-out: Bc1-XL IC50
RS4;11 cells = assay: RS4;11 cell proliferation assay (CellTiter-Glo); format: cell-based; settings: Homo sapiens, RS4-11, 48 h, read-out: RS4;11 (nM), CTG IC50
Procedure: (§3) Cell proliferation was measured using the CellTiter-Glo® Luminescent Cell Viability Assay. The assay involved the addition of a single reagent (CellTiter-Glo® Reagent) directly to cells cultured in serum-supplemented medium.
(§4) Each compound evaluated was prepared as a DMSO stock solution (10 mM). Compounds were tested in duplicate on each plate, with a 10-point serial dilution curve (1:3 dilution). Compound treatment (1.0 μL) was added from the compound dilution plate to the cell plate. The highest compound concentration was 10 μM (final), with a 0.1% final DMSO concentration. Plates were then incubated at 37° C., 5% CO2. After 48 h of compound treatment for RS4;11 or 72 h for NCI-H1963, cell plates were equilibrated at rt for approximately 30 mins. An equi-volume amount of CellTiter-Glo® Reagent (40 μL) was added to each well. […] Luminescence was recorded using a Envision plate reader according to CellTiter-Glo protocol. IC50 of each compound was calculated using GraphPad Prism by nonlinear regression analysis.

NCI-H1963 cells = assay: NCI-H1963 cell proliferation assay (CellTiter-Glo); format: cell-based; settings: Homo sapiens, NCI-H1963, 72 h, read-out: H1963 (nM), CTG IC50
Procedure: as §3, §4

[5] = HTRF, 4 nM Bcl-2, 100 nM FAM-Bak peptide
[6] = HTRF, 3 nM Bcl-XL, 40 nM FAM-Bad peptide

T1 sequence (P10415 whole entry): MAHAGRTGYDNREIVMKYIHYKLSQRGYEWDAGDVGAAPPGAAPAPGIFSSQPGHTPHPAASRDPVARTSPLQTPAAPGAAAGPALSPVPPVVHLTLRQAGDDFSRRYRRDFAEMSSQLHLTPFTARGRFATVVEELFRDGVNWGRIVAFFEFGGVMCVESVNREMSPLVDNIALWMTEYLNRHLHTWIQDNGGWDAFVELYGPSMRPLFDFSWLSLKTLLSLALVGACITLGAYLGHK
T2 sequence (Q07817 whole entry): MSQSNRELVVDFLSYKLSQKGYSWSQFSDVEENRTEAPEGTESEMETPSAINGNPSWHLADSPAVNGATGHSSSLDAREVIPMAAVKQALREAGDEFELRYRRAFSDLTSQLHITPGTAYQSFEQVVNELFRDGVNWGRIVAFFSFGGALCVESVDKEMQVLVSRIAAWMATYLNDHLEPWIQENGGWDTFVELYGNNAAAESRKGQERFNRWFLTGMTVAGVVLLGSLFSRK

CC1(C)CCC(CN2CCN(c3ccc(C(=O)NS(=O)(=O)c4ccc(NCC5(F)CCOCC5)c([N+](=O)[O-])c4)c(Oc4cnc5[nH]ccc5c4)c3)CC2)=C(C23CC(C)(C2)C3)C1 [Example 15, 2-(1H-pyrrolo[2,3-b]pyridin-5-yloxy)-4-(4-((4,4-dimethyl-2-(3-methylbicyclo[1.1.1]pentan-1-yl)cyclohex-1-enyl)methyl)piperazin-1-yl)-N-(4-((4-fluorotetrahydro-2H-pyran-4-yl)methylamino)-3-nitrophenylsulfonyl)benzamide]
Kd (Bcl-2 [1]): < 0.01 µM
Kd (Bcl-XL [2]): > 0.1 µM
IC50 (Bcl-2 [3]; [5]): ≤ 0.01 µM
IC50 (Bcl-XL [4]; [6]): ≥ 0.1 µM
IC50 (RS4;11 cells): < 100 nM

CC1(C)CCC(CN2CCN(c3ccc(C(=O)NS(=O)(=O)c4ccc(NC[C@H]5CC[C@](C)(O)CC5)c([N+](=O)[O-])c4)c(Oc4cnc5[nH]ccc5c4)c3)CC2)=C(C23CC(C)(C2)C3)C1 [Example 20, 2-(1H-pyrrolo[2,3-b]pyridin-5-yloxy)-4-(4-((4,4-dimethyl-2-(3-methylbicyclo[1.1.1]pentan-1-yl)cyclohex-1-enyl)methyl)piperazin-1-yl)-N-(4-(((1r,4r)-4-hydroxy-4-methylcyclohexyl)methylamino)-3-nitrophenylsulfonyl)benzamide]
Kd (Bcl-2 [1]): < 0.01 µM
Kd (Bcl-XL [2]): > 0.1 µM
IC50 (Bcl-2 [3]; [5]): ≤ 0.01 µM
IC50 (Bcl-XL [4]; [6]): ≥ 0.1 µM
IC50 (RS4;11 cells): < 100 nM

CC1(C)CCC(CN2CCN(c3ccc(C(=O)NS(=O)(=O)c4ccc(NC[C@H]5CC[C@](C)(O)CC5)c([N+](=O)[O-])c4)c(Oc4cnc5[nH]ccc5c4)c3)CC2)=C(C23CC(C(F)F)(C2)C3)C1 [Example 34, 2-((1H-pyrrolo[2,3-b]pyridin-5-yl)oxy)-4-(4-((2-(3-(difluoromethyl)bicyclo[1.1.1]pentan-1l-yl)-4,4-dimethylcyclohex-1-en-1-yl)methyl)piperazin-1-yl)-N-((4-((((1r,4r)-4-hydroxy-4-methylcyclohexyl)methyl)amino)-3-nitrophenyl)sulfonyl)benzamide]
Kd (Bcl-2 [1]): < 0.01 µM
Kd (Bcl-XL [2]): > 0.1 µM
IC50 (Bcl-2 [3]; [5]): ≤ 0.01 µM
IC50 (Bcl-XL [4]; [6]): 0.01 to 0.1 µM
IC50 (RS4;11 cells): < 100 nM

CC1(C)CCC(C23CC(Cl)(C2)C3)=C(CN2CCN(c3ccc(C(=O)NS(=O)(=O)c4ccc(N[C@H](CCN5CCC(O)CC5)CSc5ccccc5)c(S(=O)(=O)C(F)(F)F)c4)cc3)CC2)C1 [Example 46]
IC50 (Bcl-2 [3]; [5]): ≤ 0.01 µM
IC50 (Bcl-XL [4]; [6]): ≤ 0.01 µM
IC50 (RS4;11 cells): 100 to 1000 nM

CC1(C)CCC(C23CC(C)(C2)C3)=C(CN2CCN(c3ccc(C(=O)NS(=O)(=O)c4ccc(N[C@H](CCN5CCOCC5)CSc5ccccc5)c(S(=O)(=O)C(F)(F)F)c4)cc3)CC2)C1 [Example 47, (R)-4-(4-((5,5-Dimethyl-2-(3-methylbicyclo[1.1.1]pentan-1-yl)cyclohex-1-enyl)methyl)piperazin-1-yl)-N-(4-(4-morpholino-1-(phenylthio)butan-2-ylamino)-3-(trifluoromethylsulfonyl)phenylsulfonyl)benzamide]
Kd (Bcl-2 [1]): > 0.1 µM
Kd (Bcl-XL [2]): 0.01 to 0.1 µM
IC50 (RS4;11 cells): > 1000 nM

CC1(C)CCC(C23CC(C)(C2)C3)=C(CN2CCN(c3ccc(C(=O)NS(=O)(=O)c4ccc(N[C@H](CCN5CCC(O)CC5)CSc5ccccc5)c(S(=O)(=O)C(F)(F)F)c4)cc3)CC2)C1 [Example 48, (R)-4-(4-((5,5-dimethyl-2-(3-methylbicyclo[1.1.1]pentan-1-yl)cyclohex-1-enyl)methyl)piperazin-1-yl)-N-(4-(4-(4-hydroxypiperidin-1-yl)-1-(phenylthio)butan-2-ylamino)-3-(trifluoromethylsulfonyl)phenylsulfonyl)benzamide]
Kd (Bcl-2 [1]): 0.01 to 0.1 µM
Kd (Bcl-XL [2]): 0.01 to 0.1 µM
IC50 (Bcl-2 [3]): < 0.01 µM
IC50 (Bcl-XL [4]): < 0.01 µM
IC50 (RS4;11 cells): 100 to 1000 nM

CN(CCO)CC[C@H](CSc1ccccc1)Nc1ccc(S(=O)(=O)NC(=O)c2ccc(N3CCN(CC4=C(C56CC(C)(C5)C6)CC(C)(C)CC4)CC3)cc2)cc1S(=O)(=O)C(F)(F)F [Example 49, (R)-4-(4-((4,4-dimethyl-2-(3-methylbicyclo[1.1.1]pentan-1-yl)cyclohex-1-en-1-yl)methyl)piperazin-1-yl)-N-((4-((4-((2-hydroxyethyl)(methyl)amino)-1-(phenylthio)butan-2-yl)amino)-3-((trifluoromethyl)sulfonyl)phenyl)sulfonyl)benzamide]
IC50 (Bcl-2 [3]; [5]): ≤ 0.01 µM
IC50 (Bcl-XL [4]; [6]): ≤ 0.01 µM
IC50 (RS4;11 cells): 100 to 1000 nM

CCC12CC(C3=C(CN4CCN(c5ccc(C(=O)NS(=O)(=O)c6ccc(N[C@H](CCN(C)CCO)CSc7ccccc7)c(S(=O)(=O)C(F)(F)F)c6)cc5)CC4)CCC(C)(C)C3)(C1)C2 [Example 50, (R)-4-(4-((2-(3-Ethylbicyclo[1.1.1]pentan-1-yl)-4,4-dimethylcyclohex-1-en-1-yl)methyl)piperazin-1-yl)-N-((4-((4-((2-hydroxyethyl)(methyl)amino)-1-(phenylthio)butan-2-yl)amino)-3-((trifluoromethyl)sulfonyl)phenyl)sulfonyl)benzamide]
IC50 (Bcl-2 [3]; [5]): ≤ 0.01 µM
IC50 (Bcl-XL [4]; [6]): ≤ 0.01 µM
IC50 (RS4;11 cells): 100 to 1000 nM

CC1(C)CCC(CN2CCN(c3ccc(C(=O)NS(=O)(=O)c4ccc(N[C@H](CCN5CCOCC5)CSc5ccccc5)c(S(=O)(=O)C(F)(F)F)c4)cc3)CC2)=C(C23CC(C(F)F)(C2)C3)C1 [Example 55, (R)-4-(4-((2-(3-(difluoromethyl)bicyclo[1.1.1]pentan-1-yl)-4,4-dimethylcyclohex-1-en-1-yl)methyl)piperazin-1-yl)-N-((4-((4-morpholino-1-(phenylthio)butan-2-yl)amino)-3-((trifluoromethyl)sulfonyl)phenyl)sulfonyl)benzamide]
IC50 (Bcl-2 [3]; [5]): ≤ 0.01 µM
IC50 (Bcl-XL [4]; [6]): ≤ 0.01 µM
IC50 (RS4;11 cells): 100 to 1000 nM

CC1(C)CCC(CN2CCN(c3ccc(C(=O)NS(=O)(=O)c4ccc(N[C@H](CCN5CCOCC5)CSc5ccccc5)c([N+](=O)[O-])c4)cc3)CC2)=C(C23CC(C(F)F)(C2)C3)C1 [Example 58, (R)-4-(4-((2-(3-(difluoromethyl)bicyclo[1.1.1]pentan-1-yl)-4,4-dimethylcyclohex-1-en-1-yl)methyl)piperazin-1-yl)-N-((4-((4-morpholino-1-(phenylthio)butan-2-yl)amino)-3-nitrophenyl)sulfonyl)benzamide]
IC50 (Bcl-2 [3]; [5]): ≤ 0.01 µM
IC50 (Bcl-XL [4]; [6]): ≤ 0.01 µM
IC50 (RS4;11 cells): 100 to 1000 nM

CN(C)CC[C@H](CSc1ccccc1)Nc1ccc(S(=O)(=O)NC(=O)c2ccc(N3CCN(CC4=C(C56CC(C)(C5)C6)CC(C)(C)CC4)CC3)cc2)cc1S(=O)(=O)C(F)(F)F [Example 59, (R)-4-(4-((4,4-dimethyl-2-(3-methylbicyclo[1.1.1]pentan-1-yl)cyclohex-1-en-1-yl)methyl)piperazin-1-yl)-N-((4-((4-(dimethylamino)-1-(phenylthio)butan-2-yl)amino)-3-((trifluoromethyl)sulfonyl)phenyl)sulfonyl)benzamide]
IC50 (Bcl-2 [3]; [5]): ≤ 0.01 µM
IC50 (Bcl-XL [4]; [6]): ≤ 0.01 µM
IC50 (RS4;11 cells): 100 to 1000 nM
IC50 (NCI-H1963 cells): 500 to 1000 nM

O=C(NS(=O)(=O)c1ccc(N[C@H](CCN2CCC(O)CC2)CSc2ccccc2)c(S(=O)(=O)C(F)(F)F)c1)c1ccc(N2CCN(CC3=C(C45CC(C(F)F)(C4)C5)CC4(CCC4)CC3)CC2)cc1 [Example 67, (R)-4-(4-((6-(3-(difluoromethyl)bicyclo[1.1.1]pentan-1-yl)spiro[3.5]non-6-en-7-yl)methyl)piperazin-1-yl)-N-((4-((4-(4-hydroxypiperidin-1-yl)-1-(phenylthio)butan-2-yl)amino)-3-((trifluoromethyl)sulfonyl)phenyl)sulfonyl)benzamide]
IC50 (Bcl-2 [3]; [5]): ≤ 0.01 µM
IC50 (Bcl-XL [4]; [6]): ≤ 0.01 µM
IC50 (RS4;11 cells): 100 to 1000 nM

CC1(C)CCC(CN2CCN(c3ccc(C(=O)NS(=O)(=O)c4ccc(N[C@H](CCN5CCN(CCO)CC5)CSc5ccccc5)c(S(=O)(=O)C(F)(F)F)c4)cc3)CC2)=C(C23CC(C(F)F)(C2)C3)C1 [Example 69, (R)-4-(4-((2-(3-(difluoromethyl)bicyclo[1.1.1]pentan-1-yl)-4,4-dimethylcyclohex-1-en-1-yl)methyl)piperazin-1-yl)-N-((4-((4-(4-(2-hydroxyethyl)piperazin-1-yl)-1-(phenylthio)butan-2-yl)amino)-3-((trifluoromethyl)sulfonyl)phenyl)sulfonyl)benzamide]
IC50 (Bcl-2 [3]; [5]): ≤ 0.01 µM
IC50 (Bcl-XL [4]; [6]): ≤ 0.01 µM
IC50 (NCI-H1963 cells): 500 to 1000 nM
